Legend:
Assay type in all cases: in vivo
[1] = tested on: green peach aphid (Myzus persicae); assay: Watering test on bell-pepper plant, green peach aphid (Use Example 3)
Description: After sowing, a bell-pepper plant is grown for about 30 days in a 1 litre vessel. The plant is then watered with 60 ml of a solution having the stated concentration of insecticidally active compound and adjuvant and, after the stated period of time, infected with the green peach aphid (Myzus persicae). After the desired period of time, the kill in % is determined. 100% means that all aphids have been killed; 0% means that none of the aphids have been killed. The same test without added adjuvant served as a control.

[2] = tested on: green peach aphid (Myzus persicae); assay: Watering test on cabbage plant, green peach aphid (Use Example 5); details: infection 3 d after application, 7 d after infection
Description: (§1) After sowing, a cabbage plant (Brassica oleracea) is grown for about 10 days in a 1 litre vessel. The plant is then watered with 60 ml of a solution having the stated concentration of insecticidally active compound and adjuvant and, after the stated period of time, infected with the green peach aphid (Myzus persicae). After the desired period of time, the kill in % is determined. 100% means that all aphids have been killed; 0% means that none of the aphids have been killed. The same test without added adjuvant served as a control.

[3] = tested on: diamond-back moth (Plutella xylostella); assay: Watering test on cabbage plant, diamond-back moth caterpillars (Use Example 4); details: infection 1 d after application, 7 d after infection
Description: as §1, with “about 14” for “about 10”, “the caterpillars of the diamond-back moth (Plutella xylostella).” for “the green peach aphid (Myzus persicae).”, “all caterpillars” for “all aphids”, “the caterpillars” for “the aphids”

O=[N+]([O-])NC1=NCCN1Cc1ccc(Cl)nc1 [(II-7), imidacloprid]
Mortality ([1]; 0.0039 mg/l of soil, adjuvant (I-2) 1000 mg/l, infection 3 d after application, 7 d after infection): D (from 76 to 100) | Mortality ([1]; 0.0039 mg/l of soil, adjuvant (I-3) 2000 mg/l watering solution, infection 3 d after application, 4 d after infection): D (from 76 to 100) | Mortality ([1]; 0.0039 mg/l of soil, adjuvant (I-3) 2000 mg/l, infection 3 d after application, 7 d after infection): D (from 76 to 100) | Mortality ([1]; 0.0039 mg/l of soil, adjuvant (I-3) 2000 mg/l, infection 21 d after application, 4 d after infection): D (from 76 to 100) | Mortality ([1]; 0.0039 mg/l of soil, adjuvant (I-3) 2000 mg/l, infection 21 d after application, 7 d after infection): D (from 76 to 100) | Mortality ([1]; 0.0039 mg/l of soil, adjuvant (I-5) 2000 mg/l watering solution, infection 3 d after application, 4 d after infection): D (from 76 to 100) | Mortality ([1]; 0.0039 mg/l of soil, adjuvant (I-5) 2000 mg/l, infection 3 d after application, 7 d after infection): D (from 76 to 100) | Mortality ([1]; 0.0039 mg/l of soil, adjuvant (I-5) 2000 mg/l, infection 21 d after application, 4 d after infection): D (from 76 to 100) | Mortality ([1]; 0.0039 mg/l of soil, adjuvant (I-5) 2000 mg/l, infection 21 d after application, 7 d after infection): D (from 76 to 100) | Mortality ([1]; 0.0039 mg/l of soil, no adjuvant, infection 3 d after application, 4 d after infection): B (from 26 to 50%) | Mortality ([1]; 0.0039 mg/l of soil, no adjuvant, infection 3 d after application, 7 d after infection): C (from 51 to 75%) | Mortality ([1]; 0.0039 mg/l of soil, no adjuvant, infection 21 d after application, 4 d after infection): C (from 51 to 75%) | Mortality ([1]; 0.0039 mg/l of soil, no adjuvant, infection 21 d after application, 7 d after infection): C (from 51 to 75%) | Mortality ([2]; 0.00195 mg/l of soil, adjuvant (I-2) 1000 mg/l): B (from 26 to 50%) | Mortality ([2]; 0.00195 mg/l of soil, no adjuvant): A (from 0 to 25%) | Mortality ([2]; 0.0039 mg/l of soil, adjuvant (I-2) 1000 mg/l): C (from 51 to 75%) | Mortality ([2]; 0.0039 mg/l of soil, no adjuvant): B (from 26 to 50%)

CN(Cc1ccc(Cl)nc1)C1=CC(=O)OC1 [(IV-1)]
Mortality ([1]; 0.0156 mg/l of soil, adjuvant (I-3) 2000 mg/l, infection 13 d after application, 5 d after infection): D (from 76 to 100) | Mortality ([1]; 0.0156 mg/l of soil, adjuvant (I-3) 2000 mg/l, infection 13 d after application, 7 d after infection): D (from 76 to 100) | Mortality ([1]; 0.0156 mg/l of soil, adjuvant (I-5) 2000 mg/l, infection 13 d after application, 5 d after infection): D (from 76 to 100) | Mortality ([1]; 0.0156 mg/l of soil, adjuvant (I-5) 2000 mg/l, infection 13 d after application, 7 d after infection): D (from 76 to 100) | Mortality ([1]; 0.0156 mg/l of soil, no adjuvant, infection 13 d after application, 5 d after infection): C (from 51 to 75%) | Mortality ([1]; 0.0156 mg/l of soil, no adjuvant, infection 13 d after application, 7 d after infection): C (from 51 to 75%) | Mortality ([1]; 0.0313 mg/l of soil, adjuvant (I-3) 2000 mg/l, infection 7 d after application, 4 d after infection): D (from 76 to 100) | Mortality ([1]; 0.0313 mg/l of soil, adjuvant (I-3) 2000 mg/l, infection 7 d after application, 6 d after infection): D (from 76 to 100) | Mortality ([1]; 0.0313 mg/l of soil, adjuvant (I-5) 2000 mg/l, infection 7 d after application, 4 d after infection): D (from 76 to 100) | Mortality ([1]; 0.0313 mg/l of soil, adjuvant (I-5) 2000 mg/l, infection 7 d after application, 6 d after infection): D (from 76 to 100) | Mortality ([1]; 0.0313 mg/l of soil, no adjuvant, infection 7 d after application, 4 d after infection): C (from 51 to 75%) | Mortality ([1]; 0.0313 mg/l of soil, no adjuvant, infection 7 d after application, 6 d after infection): C (from 51 to 75%)

CCOC(=O)OC1=C(c2cc(C)ccc2C)C(=O)NC12CCC(OC)CC2 (centres unmarked) [(V-3)]
Mortality ([1]; 2 mg/l of soil, adjuvant (I-5) 1000 mg/l, infection 3 d after application, 7 d after infection): C (from 51 to 75%) | Mortality ([1]; 2 mg/l of soil, adjuvant (I-5) 1000 mg/l, infection 5 d after application, 7 d after infection): C (from 51 to 75%) | Mortality ([1]; 2 mg/l of soil, no adjuvant, infection 3 d after application, 7 d after infection): B (from 26 to 50%) | Mortality ([1]; 2 mg/l of soil, no adjuvant, infection 5 d after application, 7 d after infection): B (from 26 to 50%)

N#Cc1nn(-c2c(Cl)cc(C(F)(F)F)cc2Cl)c(N)c1[S+]([O-])C(F)(F)F (centres unmarked) [(VI-1), fipronil]
Mortality ([3]; 1 mg/l of soil, adjuvant (I-3) 1000 mg/l): B (from 26 to 50%) | Mortality ([3]; 1 mg/l of soil, adjuvant (I-5) 1000 mg/l): C (from 51 to 75%) | Mortality ([3]; 1 mg/l of soil, no adjuvant): A (from 0 to 25%) | Mortality ([3]; 5 mg/l of soil, adjuvant (I-3) 1000 mg/l): D (from 76 to 100) | Mortality ([3]; 5 mg/l of soil, no adjuvant): C (from 51 to 75%)
